Laboratory results from the supplement of paper PMC10878532, “Sperm Toolbox—A selection of small molecules to study human spermatozoa” (PLOS ONE, 2024).

Tests used:
HepG2 = HepG2 toxicity (resazurin), effect normalised to DMSO (DMSO = 0); higher = more features changed / larger toxic effect; conditions: incubation time: 70h incubation
HeLa [1] = assay: HeLa toxicity: nuclei-count effect normalised to DMSO (DMSO = 0); higher = more features changed / larger toxic effect; conditions: incubation time: 24h incubation
HeLa [2] = assay: Cell Painting percent induction (share of features beyond 2 z-scores vs DMSO); higher = more features changed / larger toxic effect; extreme values may be limits of the assay; conditions: incubation time: 24h incubation
human spermatozoa [3] = assay: total motile sperm, percent change vs DMSO (non-capacitating); higher = more of the measured sperm population than DMSO, for viability, fewer PI-positive (dead) cells than DMSO
human spermatozoa [4] = assay: viability fold change, 1 - (PI-positive fraction / DMSO median); higher = more of the measured sperm population than DMSO, for viability, fewer PI-positive (dead) cells than DMSO; conditions: incubation time: 3h, non-capacitating
human spermatozoa [5] = assay: progressively motile sperm, percent change vs DMSO (capacitating); higher = more of the measured sperm population than DMSO, for viability, fewer PI-positive (dead) cells than DMSO; conditions: incubation time: 30min incubation
human spermatozoa [6] = assay: hyperactivated motile sperm, percent change vs DMSO (capacitating); higher = more of the measured sperm population than DMSO, for viability, fewer PI-positive (dead) cells than DMSO; conditions: incubation time: 30min incubation
human spermatozoa [7] = assay: change in acrosome-reacted (PNA+) sperm vs DMSO, no agonist (capacitating); higher = more of the measured sperm population than DMSO, for viability, fewer PI-positive (dead) cells than DMSO; conditions: incubation time: 3h
human spermatozoa [8] = assay: acrosome-reacted (PNA+) sperm after agonist cocktail, percent change vs DMSO (capacitating); higher = more of the measured sperm population than DMSO, for viability, fewer PI-positive (dead) cells than DMSO; conditions: incubation time: 3h, capacitating + agonist cocktail 1h
human spermatozoa [9] = assay: progressively motile sperm, percent change vs DMSO (non-capacitating); higher = more of the measured sperm population than DMSO, for viability, fewer PI-positive (dead) cells than DMSO; extreme values may be limits of the assay
[10] = incubation time: 10min incubation, 9.99 µM
[11] = incubation time: 10min incubation, 29.9 µM
[12] = incubation time: 3h incubation, 9.99 µM
[13] = incubation time: 3h incubation, 29.9 µM
[14] = incubation time: 6h incubation, 9.99 µM
[15] = incubation time: 6h incubation, 29.9 µM
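Throughout, for progressively motile sperm, percent change vs DMSO (non-capacitating): pooled live human sperm from at least 3 donors, tracked by automated microscopy in 0.5 s time-lapse movies, compounds at 10 and 30 µM, versus median of 16 DMSO wells per plate.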
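Throughout, for total motile sperm, percent change vs DMSO (non-capacitating): sperm pooled from at least 3 donors, tracked in 0.5 s time-lapse movies by automated microscopy after 10 min, 3 h or 6 h with compound at 10 or 30 µM.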

| Compound | HepG2 toxicity (HepG2; 10 µM) [%] | HepG2 toxicity (HepG2; 30 µM) [%] | HeLa toxicity: nuclei-count effect normalised (HeLa [1]; 9.99 µM) [%] | HeLa toxicity: nuclei-count effect normalised (HeLa [1]; 29.9 µM) [%] | Cell Painting percent induction (HeLa [2]; 9.99 µM) [%] | Cell Painting percent induction (HeLa [2]; 29.9 µM) [%] | total motile sperm (human spermatozoa [3]; [10]) [%] | total motile sperm (human spermatozoa [3]; [11]) [%] | total motile sperm (human spermatozoa [3]; [12]) [%] | total motile sperm (human spermatozoa [3]; [13]) [%] | total motile sperm (human spermatozoa [3]; [14]) [%] | total motile sperm (human spermatozoa [3]; [15]) [%] | viability fold change (human spermatozoa [4]; 9.99 µM) | viability fold change (human spermatozoa [4]; 29.9 µM) | progressively motile sperm (human spermatozoa [5]; 9.99 µM) [%] | progressively motile sperm (human spermatozoa [5]; 29.9 µM) [%] | hyperactivated motile sperm (human spermatozoa [6]; 9.99 µM) [%] | hyperactivated motile sperm (human spermatozoa [6]; 29.9 µM) [%] | change in acrosome-reacted (human spermatozoa [7]; 9.99 µM) [%] | change in acrosome-reacted (human spermatozoa [7]; 29.9 µM) [%] | acrosome-reacted (human spermatozoa [8]; 9.99 µM) [%] | acrosome-reacted (human spermatozoa [8]; 29.9 µM) [%] | progressively motile sperm (human spermatozoa [9]; [10]) [%] | progressively motile sperm (human spermatozoa [9]; [11]) [%] | progressively motile sperm (human spermatozoa [9]; [12]) [%] | progressively motile sperm (human spermatozoa [9]; [13]) [%] | progressively motile sperm (human spermatozoa [9]; [14]) [%] | progressively motile sperm (human spermatozoa [9]; [15]) [%] |
| --- | --- | --- | --- | --- | --- | --- | --- | --- | --- | --- | --- | --- | --- | --- | --- | --- | --- | --- | --- | --- | --- | --- | --- | --- | --- | --- | --- | --- |
| c1ccc2c(c1)SCc1c-2[nH]c2ccccc12 | 10.5 | 102 | 83.9 | 99.3 | 30.2 | 46 | -62 | -88.1 | -66.5 | -92.9 | -54.6 | -91.4 | 0.409 | 0.115 | -60.3 | -95.6 | -56.3 | -84.3 | 0.192 | 0.819 | 3.76 | -34.5 | -81.3 | -99.9 | -74.4 | -100 | -76 | -99.9 |
| CC1(C)CC=C(c2ccccc2)c2cc(/C=C/c3ccc(C(=O)O)cc3)ccc21 | 0.925 | -8.39 | 6.08 | 8.35 | 0 | 0 | 2.52 | 2.83 | 0.861 | 0.353 | -4.19 | 0.705 | -1.22 | -0.368 | -4.62 | -9.29 | -3.7 | -30.1 | 1.18 | 1.38 | 10.6 | 7.54 | 8.04 | 5.98 | 18.8 | 9.32 | 6.74 | 13 |
| Cc1ccc(S(=O)(=O)c2ccc([N+](=O)[O-])o2)cc1 | 103 | 103 | 83 | 88.8 | 18.5 | 9.8 | -0.166 | -5.06 | -76.8 | -91.9 | -86.5 | -92.7 | -1.25 | -1.57 | -9.29 | -10.6 | 3.4 | 0.123 | 3.49 | 4.92 | 81 | 103 | -30.4 | -44.1 | -96.9 | -100 | -99.3 | -100 |
| CCCCCCCCOc1ccc(-c2noc([C@@H]3CCCN3C(=N)N)n2)cc1C(F)(F)F | 8.34 | 102 | 35.1 | 82.8 | 15.4 | 6.63 | 0.514 | -52.9 | -72.1 | -92.8 | -86.2 | -93.7 | -1.83 | -2.7 | -6.84 | -99.7 | -41.8 | -89.2 | 46.2 | 70.7 | 114 | 138 | 19.2 | -91.9 | -94.9 | -100 | -99.9 | -99.9 |
